Reference: PubChem BioAssay AID2060898 (Molecular Pharmacology Branch, DTP, NCI, 2025)

Test system: 616215-338-R-J1-PDC complex spheroid viability
Assay: Anticancer human tumor 616215-338-R-J1-PDC patient-derived colon adenocarcinoma cell line growth inhibition [RAS]
Settings: for IC50: curve of first compound; for viability, T/C: stronger effect = lower value
Procedure, shortened: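 Multi-cell-type spheroids: tumor cells plus HUVEC endothelial cells and mesenchymal stem cells. RAS-pathway inhibitors were combined with targeted agents, each dosed in half-log steps down from clinical Cmax, or from 10 microM when Cmax was unknown.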
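Further: spheroids exposed to agents for seven days before viability readout.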
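Wherever viability, T/C is given: 100% = DMSO vehicle control viability.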

Cc1nc(N2CCC3(CC2)COC(C)C3N)c(CO)nc1Sc1ccnc(N)c1Cl (configuration not stated) + CCn1c(-c2cccnc2C(C)OC)c2c3cc(ccc31)N1CCOC(CC(NC(=O)C(C(C)C)N(C)C(=O)C3(F)CCN(C(=O)C#CC(C)(C)N(C)C)CC3)C(=O)N3CCCC(N3)C(=O)OCC(C)(C)C2)C1
IC50 (second compound 0.000949 µM): > 10 µM
IC50 (second compound 0.003 µM): > 10 µM
IC50 (second compound 0.00949 µM): > 10 µM
IC50 (second compound 0.03 µM): > 10 µM
IC50 (second compound 0.0949 µM): > 10 µM
IC50 (second compound 0.3 µM): 7.52 µM
viability, T/C (second compound 0.000949 µM, first compound 0.0316 µM): 112%
viability, T/C (second compound 0.000949 µM, first compound 0.1 µM): 106%
viability, T/C (second compound 0.000949 µM, first compound 0.316 µM): 117%
viability, T/C (second compound 0.000949 µM, first compound 1 µM): 96.8%
viability, T/C (second compound 0.000949 µM, first compound 3.16 µM): 80.1%
viability, T/C (second compound 0.000949 µM, first compound 10 µM): 72.3%
viability, T/C (second compound 0.003 µM, first compound 0.0316 µM): 110%
viability, T/C (second compound 0.003 µM, first compound 0.1 µM): 112%
viability, T/C (second compound 0.003 µM, first compound 0.316 µM): 103%
viability, T/C (second compound 0.003 µM, first compound 1 µM): 92.6%
viability, T/C (second compound 0.003 µM, first compound 3.16 µM): 79.6%
viability, T/C (second compound 0.003 µM, first compound 10 µM): 69.6%
viability, T/C (second compound 0.00949 µM, first compound 0.0316 µM): 113%
viability, T/C (second compound 0.00949 µM, first compound 0.1 µM): 108%
viability, T/C (second compound 0.00949 µM, first compound 0.316 µM): 111%
viability, T/C (second compound 0.00949 µM, first compound 1 µM): 93.3%
viability, T/C (second compound 0.00949 µM, first compound 3.16 µM): 92.6%
viability, T/C (second compound 0.00949 µM, first compound 10 µM): 62.8%
viability, T/C (second compound 0.03 µM, first compound 0.0316 µM): 116%
viability, T/C (second compound 0.03 µM, first compound 0.1 µM): 114%
viability, T/C (second compound 0.03 µM, first compound 0.316 µM): 101%
viability, T/C (second compound 0.03 µM, first compound 1 µM): 97.8%
viability, T/C (second compound 0.03 µM, first compound 3.16 µM): 86.1%
viability, T/C (second compound 0.03 µM, first compound 10 µM): 59.1%
viability, T/C (second compound 0.0949 µM, first compound 0.0316 µM): 117%
viability, T/C (second compound 0.0949 µM, first compound 0.1 µM): 120%
viability, T/C (second compound 0.0949 µM, first compound 0.316 µM): 96.8%
viability, T/C (second compound 0.0949 µM, first compound 1 µM): 74.2%
viability, T/C (second compound 0.0949 µM, first compound 3.16 µM): 62.5%
viability, T/C (second compound 0.0949 µM, first compound 10 µM): 53.8%
viability, T/C (second compound 0.3 µM, first compound 0.0316 µM): 102%
viability, T/C (second compound 0.3 µM, first compound 0.1 µM): 84%
viability, T/C (second compound 0.3 µM, first compound 0.316 µM): 77%
viability, T/C (second compound 0.3 µM, first compound 1 µM): 68.3%
viability, T/C (second compound 0.3 µM, first compound 3.16 µM): 52.6%
viability, T/C (second compound 0.3 µM, first compound 10 µM): 49.2%
